Experimental data from paper PMC9558304, “Biomimetic Mineralization of Iron-Fumarate Nanoparticles for Protective Encapsulation and Intracellular Delivery of Proteins” (Chemistry of Materials, 2022).

Molecular target: T1, horseradish peroxidase (HRP) (Armoracia rusticana, UniProt P00433)
T1 construct: gene PRXC1A
T1 sequence (P00433 31-338): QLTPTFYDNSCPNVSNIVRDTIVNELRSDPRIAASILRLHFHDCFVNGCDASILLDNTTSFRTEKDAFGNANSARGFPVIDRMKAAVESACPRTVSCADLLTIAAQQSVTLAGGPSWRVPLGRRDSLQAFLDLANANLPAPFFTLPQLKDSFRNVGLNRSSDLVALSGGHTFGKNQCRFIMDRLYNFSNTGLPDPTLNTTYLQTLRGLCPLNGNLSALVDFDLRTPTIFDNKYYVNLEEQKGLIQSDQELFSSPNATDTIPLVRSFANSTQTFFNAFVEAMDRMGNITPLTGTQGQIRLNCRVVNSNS
Experiment: fluorescence plate reader ([…] nm), Michaelis-Menten fit
Assay type: biochemical
Settings: free HRP added to degraded Fe-fum NPs (citrate buffer); 2500 μM H2O2; Amplex UltraRed 0-100 μM

Substance: Amplex UltraRed
- Km: 182 ± 73 µM
